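Where inhibition never reached the appropriate level, the endpoint shown equals the highest concentration tested. Otherwise, values were interpolated linearly from a five-concentration, 48-hour dose response in 96-well plates. GI50 is the concentration that inhibits growth by half. The concentration for full growth arrest is given as TGI.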
Key:
Assay in all cases: NCI tumour cell line growth inhibition, 48 h
OVCAR-3 ovarian = tested on: OVCAR-3 ovarian
KM12 colon = tested on: KM12 colon
SK-MEL-28 melanoma = tested on: SK-MEL-28 melanoma
786-0 renal = tested on: 786-0 renal
TK-10 renal = tested on: TK-10 renal
NCI-H226 lung = tested on: NCI-H226 lung
SK-MEL-5 melanoma = tested on: SK-MEL-5 melanoma
HS 578T breast = tested on: HS 578T breast
OVCAR-5 ovarian = tested on: OVCAR-5 ovarian
HCT-116 colon = tested on: HCT-116 colon
SNB-19 CNS = tested on: SNB-19 CNS
U251 CNS = tested on: U251 CNS
SN12C renal = tested on: SN12C renal
SF-295 CNS = tested on: SF-295 CNS
OVCAR-8 ovarian = tested on: OVCAR-8 ovarian
RPMI-8226 leukemia = tested on: RPMI-8226 leukemia
IGROV1 ovarian = tested on: IGROV1 ovarian
SF-268 CNS = tested on: SF-268 CNS
MOLT-4 leukemia = tested on: MOLT-4 leukemia
PC-3 prostate = tested on: PC-3 prostate
COLO 205 colon = tested on: COLO 205 colon
SF-539 CNS = tested on: SF-539 CNS
A549 NSCLC = tested on: A549 NSCLC
SR leukemia = tested on: SR leukemia
UO-31 renal = tested on: UO-31 renal
UACC-62 melanoma = tested on: UACC-62 melanoma
DU-145 prostate = tested on: DU-145 prostate
MCF7 breast = tested on: MCF7 breast
SK-MEL-2 melanoma = tested on: SK-MEL-2 melanoma
LOX IMVI melanoma = tested on: LOX IMVI melanoma
HOP-62 NSCLC = tested on: HOP-62 NSCLC
MALME-3M melanoma = tested on: MALME-3M melanoma
HCT-15 colon = tested on: HCT-15 colon
MDA-MB-231 breast = tested on: MDA-MB-231 breast
SK-OV-3 ovarian = tested on: SK-OV-3 ovarian
HL-60(TB) leukemia = tested on: HL-60(TB) leukemia
OVCAR-4 ovarian = tested on: OVCAR-4 ovarian
SW-620 colon = tested on: SW-620 colon
NCI-H23 lung = tested on: NCI-H23 lung
ACHN renal = tested on: ACHN renal
HCC-2998 colon = tested on: HCC-2998 colon
M14 melanoma = tested on: M14 melanoma
A498 renal = tested on: A498 renal
BT-549 breast = tested on: BT-549 breast
UACC-257 melanoma = tested on: UACC-257 melanoma
K-562 leukemia = tested on: K-562 leukemia
MDA-MB-435 = tested on: MDA-MB-435
NCI-H522 lung = tested on: NCI-H522 lung
HT29 colon = tested on: HT29 colon
NCI/ADR-RES ovarian = tested on: NCI/ADR-RES ovarian
T-47D breast = tested on: T-47D breast
CCRF-CEM leukemia = tested on: CCRF-CEM leukemia
HOP-92 NSCLC = tested on: HOP-92 NSCLC
RXF 393 renal = tested on: RXF 393 renal
NCI-H460 lung = tested on: NCI-H460 lung

`COc1cc(-c2cc(/C=C/C(=O)c3ccc(N)cc3)[nH]n2)cc(OC)c1OC` gave a GI50 (OVCAR-3 ovarian) of 1570 nM, a TGI (OVCAR-3 ovarian) of 3370 nM and a GI50 (KM12 colon) of 1140 nM. For the same molecule, the TGI (KM12 colon) was 2880 nM, the GI50 (SK-MEL-28 melanoma) was 1860 nM and the TGI (SK-MEL-28 melanoma) was 4080 nM. For the same molecule, the GI50 (786-0 renal) was 2040 nM, the TGI (786-0 renal) was 6490 nM and the GI50 (TK-10 renal) was 4840 nM. It also gave a TGI (TK-10 renal) of 17500 nM, a GI50 (NCI-H226 lung) of 1710 nM and a TGI (NCI-H226 lung) of 3510 nM. The GI50 (SK-MEL-5 melanoma) was 1650 nM, the TGI (SK-MEL-5 melanoma) was 3060 nM and the GI50 (HS 578T breast) was 4330 nM. It also gave a TGI (HS 578T breast) of over 100000 nM, a GI50 (OVCAR-5 ovarian) of 1780 nM and a TGI (OVCAR-5 ovarian) of 3750 nM. For the same molecule, the GI50 (HCT-116 colon) was 1100 nM, the TGI (HCT-116 colon) was 2610 nM and the GI50 (SNB-19 CNS) was 2340 nM. It also gave a TGI (SNB-19 CNS) of 9980 nM, a GI50 (U251 CNS) of 1420 nM and a TGI (U251 CNS) of 2770 nM. It also gave a GI50 (SN12C renal) of 1860 nM, a TGI (SN12C renal) of 4520 nM and a GI50 (SF-295 CNS) of 2550 nM. The TGI (SF-295 CNS) was 10900 nM, the GI50 (OVCAR-8 ovarian) was 2390 nM and the TGI (OVCAR-8 ovarian) was 9760 nM. It also gave a GI50 (RPMI-8226 leukemia) of 479 nM, a TGI (RPMI-8226 leukemia) of 2770 nM and a GI50 (IGROV1 ovarian) of 3200 nM. For the same molecule, the TGI (IGROV1 ovarian) was 10500 nM, the GI50 (SF-268 CNS) was 1690 nM and the TGI (SF-268 CNS) was 3930 nM. It also gave a GI50 (MOLT-4 leukemia) of 1910 nM, a TGI (MOLT-4 leukemia) of 8510 nM and a GI50 (PC-3 prostate) of 2210 nM. For the same molecule, the TGI (PC-3 prostate) was 10400 nM, the GI50 (COLO 205 colon) was 1740 nM and the TGI (COLO 205 colon) was 3340 nM. The GI50 (SF-539 CNS) was 1300 nM, the TGI (SF-539 CNS) was 2660 nM and the GI50 (A549 NSCLC) was 2080 nM. The TGI (A549 NSCLC) was 7020 nM, the GI50 (SR leukemia) was 326 nM and the TGI (SR leukemia) was 2750 nM. The GI50 (UO-31 renal) was 1360 nM, the TGI (UO-31 renal) was 2860 nM and the GI50 (UACC-62 melanoma) was 1700 nM. For the same molecule, the TGI (UACC-62 melanoma) was 3580 nM, the GI50 (DU-145 prostate) was 1650 nM and the TGI (DU-145 prostate) was 4050 nM. For the same molecule, the GI50 (MCF7 breast) was 1500 nM, the TGI (MCF7 breast) was 5420 nM and the GI50 (SK-MEL-2 melanoma) was 2850 nM. The TGI (SK-MEL-2 melanoma) was 7530 nM, the GI50 (LOX IMVI melanoma) was 1600 nM and the TGI (LOX IMVI melanoma) was 3280 nM. The GI50 (HOP-62 NSCLC) was 1770 nM, the TGI (HOP-62 NSCLC) was 3920 nM and the GI50 (MALME-3M melanoma) was 2050 nM. It also gave a TGI (MALME-3M melanoma) of 4710 nM, a GI50 (HCT-15 colon) of 1370 nM and a TGI (HCT-15 colon) of 6760 nM. The GI50 (MDA-MB-231 breast) was 2060 nM, the TGI (MDA-MB-231 breast) was 12200 nM and the GI50 (SK-OV-3 ovarian) was 2990 nM. The TGI (SK-OV-3 ovarian) was 8320 nM, the GI50 (HL-60(TB) leukemia) was 1740 nM and the TGI (HL-60(TB) leukemia) was 10800 nM. It also gave a GI50 (OVCAR-4 ovarian) of 1400 nM, a TGI (OVCAR-4 ovarian) of 5440 nM and a GI50 (SW-620 colon) of 2050 nM. For the same molecule, the TGI (SW-620 colon) was 6370 nM, the GI50 (NCI-H23 lung) was 2480 nM and the TGI (NCI-H23 lung) was 6790 nM. It also gave a GI50 (ACHN renal) of 1610 nM, a TGI (ACHN renal) of 3670 nM and a GI50 (HCC-2998 colon) of 2010 nM. It also gave a TGI (HCC-2998 colon) of 3630 nM, a GI50 (M14 melanoma) of 1830 nM and a TGI (M14 melanoma) of 3860 nM. For the same molecule, the GI50 (A498 renal) was 1640 nM, the TGI (A498 renal) was 4330 nM and the GI50 (BT-549 breast) was 1380 nM. The TGI (BT-549 breast) was 2820 nM, the GI50 (UACC-257 melanoma) was 1870 nM and the TGI (UACC-257 melanoma) was 4020 nM. For the same molecule, the GI50 (K-562 leukemia) was 726 nM, the TGI (K-562 leukemia) was 23600 nM and the GI50 (MDA-MB-435) was 1660 nM. For the same molecule, the TGI (MDA-MB-435) was 3210 nM, the GI50 (NCI-H522 lung) was 1620 nM and the TGI (NCI-H522 lung) was 3990 nM. For the same molecule, the GI50 (HT29 colon) was 1850 nM, the TGI (HT29 colon) was 4820 nM and the GI50 (NCI/ADR-RES ovarian) was 3800 nM. It also gave a TGI (NCI/ADR-RES ovarian) of 65800 nM, a GI50 (T-47D breast) of 1420 nM and a TGI (T-47D breast) of 4300 nM. The GI50 (CCRF-CEM leukemia) was 556 nM, the TGI (CCRF-CEM leukemia) was 4170 nM and the GI50 (HOP-92 NSCLC) was 3680 nM. For the same molecule, the TGI (HOP-92 NSCLC) was 27600 nM, the GI50 (RXF 393 renal) was 1350 nM and the TGI (RXF 393 renal) was 3240 nM. It also gave a GI50 (NCI-H460 lung) of 1800 nM and a TGI (NCI-H460 lung) of 5100 nM.
